Laboratory results: ChEMBL document CHEMBL1128763, “Synthesis of 2-substituted d-tryptophan-containing peptide derivatives with endothelin receptor antagonist activity” (Bioorg Med Chem Lett, 1995)
pIC50: −log10 of the molar value.

Columns and labels:
Endothelin-1 receptor [1] = target: T1, Endothelin-1 receptor (Homo sapiens, UniProt P25101); assay: Functional inhibition of ET-1 induced [Ca2+] increase in human neuroblastoma-derived SK-N-MC cells, which express Endothelin A receptor; assay type: cell-based
T1 sequence (P25101 whole entry): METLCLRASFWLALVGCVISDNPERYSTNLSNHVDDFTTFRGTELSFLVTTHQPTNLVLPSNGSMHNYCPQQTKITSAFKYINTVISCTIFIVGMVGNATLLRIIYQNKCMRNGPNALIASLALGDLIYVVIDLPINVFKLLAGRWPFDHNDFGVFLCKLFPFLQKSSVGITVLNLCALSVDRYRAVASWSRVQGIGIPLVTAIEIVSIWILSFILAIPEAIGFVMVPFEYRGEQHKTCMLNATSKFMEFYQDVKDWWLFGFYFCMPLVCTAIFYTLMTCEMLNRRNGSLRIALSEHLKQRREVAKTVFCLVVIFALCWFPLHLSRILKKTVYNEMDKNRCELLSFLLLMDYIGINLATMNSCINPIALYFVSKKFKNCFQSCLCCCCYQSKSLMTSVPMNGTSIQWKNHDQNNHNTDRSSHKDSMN

[2] = target: T2, Endothelin receptor type B (Homo sapiens, UniProt P24530); assay: Functional inhibition of ET-1 induced [Ca2+] increase in human Girardi heart (hGH) cells, which express Endothelin B receptor
T2 sequence (P24530 whole entry): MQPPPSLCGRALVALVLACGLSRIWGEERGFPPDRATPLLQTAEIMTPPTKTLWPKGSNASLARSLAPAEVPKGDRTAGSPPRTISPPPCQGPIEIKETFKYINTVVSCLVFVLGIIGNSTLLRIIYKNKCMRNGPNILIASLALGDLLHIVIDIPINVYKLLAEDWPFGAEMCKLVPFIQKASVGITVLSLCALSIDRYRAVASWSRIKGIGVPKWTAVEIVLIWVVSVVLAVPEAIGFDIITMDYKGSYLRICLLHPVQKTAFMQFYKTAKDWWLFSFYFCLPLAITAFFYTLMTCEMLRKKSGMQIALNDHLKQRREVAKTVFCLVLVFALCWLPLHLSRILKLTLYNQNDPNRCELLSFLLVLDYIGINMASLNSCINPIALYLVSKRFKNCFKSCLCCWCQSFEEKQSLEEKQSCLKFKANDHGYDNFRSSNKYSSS

[3] = target: T3, Endothelin receptor type B (Sus scrofa, UniProt P35463); assay: Inhibitory activity against 125 I-labeled ET-1 binding to Endothelin B receptor in porcine cerebellum membranes; assay type: cell membranes, Membrane
T3 sequence (P35463 whole entry): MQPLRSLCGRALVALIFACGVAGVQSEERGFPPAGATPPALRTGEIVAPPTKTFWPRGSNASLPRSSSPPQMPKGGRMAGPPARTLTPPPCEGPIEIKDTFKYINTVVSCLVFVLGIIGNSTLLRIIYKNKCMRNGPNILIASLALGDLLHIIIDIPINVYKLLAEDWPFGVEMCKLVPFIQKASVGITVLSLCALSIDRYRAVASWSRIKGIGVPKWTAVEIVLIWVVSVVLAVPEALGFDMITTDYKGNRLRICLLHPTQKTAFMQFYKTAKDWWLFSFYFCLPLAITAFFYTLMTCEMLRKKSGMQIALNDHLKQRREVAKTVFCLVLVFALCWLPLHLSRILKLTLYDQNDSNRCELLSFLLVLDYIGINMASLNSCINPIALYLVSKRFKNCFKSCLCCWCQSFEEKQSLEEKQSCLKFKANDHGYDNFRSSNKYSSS

Endothelin-1 receptor [4] = target: T4, Endothelin-1 receptor (Sus scrofa, UniProt Q29010); assay: Inhibitory activity against 125 I-labeled ET-1 binding to Endothelin A receptor in porcine aortic smooth muscle membranes.
T4 sequence (Q29010 whole entry): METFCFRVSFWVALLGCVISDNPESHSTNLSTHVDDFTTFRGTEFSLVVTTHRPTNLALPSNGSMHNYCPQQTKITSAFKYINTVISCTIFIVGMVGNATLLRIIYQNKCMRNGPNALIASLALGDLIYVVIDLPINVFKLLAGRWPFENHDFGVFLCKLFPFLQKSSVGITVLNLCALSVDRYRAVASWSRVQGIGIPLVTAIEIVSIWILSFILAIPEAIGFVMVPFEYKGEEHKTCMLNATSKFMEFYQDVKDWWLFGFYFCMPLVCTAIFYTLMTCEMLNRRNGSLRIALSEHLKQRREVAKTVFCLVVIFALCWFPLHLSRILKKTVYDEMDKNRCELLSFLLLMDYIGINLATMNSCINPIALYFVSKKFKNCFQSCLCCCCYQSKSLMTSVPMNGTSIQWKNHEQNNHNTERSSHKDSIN

pIC50 (Endothelin-1 receptor [1])	pIC50 [2]	pIC50 [3]	pIC50 (Endothelin-1 receptor [4])	Compound
7.80	9.10			CCCC[C@@H](NC(=O)[C@@H](Cc1c(Br)[nH]c2ccccc12)NC(=O)[C@@H](NC(=O)N1[C@H](C)CCC[C@@H]1C)C1CC1)C(=O)O
		8.92	6.55	CCCC[C@@H](NC(=O)[C@@H](Cc1cn(C(=O)OC)c2ccccc12)NC(=O)[C@H](CC(C)(C)C)NC(=O)N1[C@H](C)CCC[C@@H]1C)C(=O)O
5.21	8.40			CCCC[C@@H](NC(=O)[C@@H](Cc1c(C#N)[nH]c2ccccc12)NC(=O)[C@@H](NC(=O)N1[C@H](C)CCC[C@@H]1C)C(C)C)C(=O)O
			7.66	CC(C)C[C@@H]1NC(=O)[C@@H](C(C)C)NC(=O)C2CCCN2C(=O)[C@@H](CC(=O)O)NC(=O)[C@@H](Cc2c[nH]c3ccccc23)NC1=O (single isomer, unassigned) [BQ-123]
